# Where a name gives a salt, the structure may show the parent alone.
# System: HCT116
# Conditions: 72 h
# How it was run: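 Each well of the 1536-well plates received 250 HCT116 cells, which attached over 5 h. Luminescence was measured with CellTiter-Glo, scaled with vehicle as 0% and positive control as -100%, and pattern-corrected. A four-parameter Hill fit yielded IC50 and maximal efficacy.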
SMILES,IC50 cell viability (ICRF193 0 nM) [µM],IC50 cell viability (ICRF193 200 nM) [µM]
CCCCc1nc(Cl)c(CO)n1Cc1ccc(-c2ccccc2-c2nnn[nH]2)cc1 [Losartan],> 45.8,> 45.8
CN1CCN(C2=Nc3ccccc3Oc3ccc(Cl)cc32)CC1 [Loxapine succinate],> 45.8,> 45.8
CC(C)=CCC/C(C)=C/C=C/C(C)=C/C=C/C(C)=C/C=C/C=C(C)/C=C/C=C(C)/C=C/C=C(\C)CCC=C(C)C [Lycopene],> 45.8,> 45.8
C#C[C@]1(O)CC[C@H]2[C@@H]3CCC4=CCCC[C@@H]4[C@H]3CC[C@@]21C [Lynestrenol],> 45.8,> 45.8
COC(=O)C(c1ccccc1)C1CCCCN1 (stereo not drawn) [METHYLPHENIDATE HYDROCHLORIDE],> 45.8,> 45.8
CS(=O)(=O)n1cc2c(n1)CN([C@H]1CO[C@H](c3cc(F)ccc3F)[C@@H](N)C1)C2 [MK-3102],> 45.8,> 45.8
CC(C)(C)NCC(O)c1cc(Cl)c(N)c(C(F)(F)F)c1 (stereo not drawn) [Mabuterol hydrochloride],> 45.8,> 45.8
CCCNS(=O)(=O)Nc1ncnc(OCCOc2ncc(Br)cn2)c1-c1ccc(Br)cc1 [Macitentan],> 45.8,> 45.8
CCOC(=O)CC(SP(=S)(OC)OC)C(=O)OCC (stereo not drawn) [Malathion],> 45.8,> 45.8
C=C1/C(=C\C=C2/CCC[C@]3(C)[C@@H]([C@H](C)OCCC(C)(C)O)CC[C@@H]23)C[C@@H](O)C[C@@H]1O [Maxacalcitol-D6],> 45.8,> 45.8
CN1[C@@H]2CCC(C)(C)[C@H]1C[C@H](OC(=O)C(O)(c1cccs1)c1cccs1)C2 [Mazaticol],> 45.8,> 45.8
CCN(CCCCOC(=O)c1ccc(OC)c(OC)c1)C(C)Cc1ccc(OC)cc1 (stereo not drawn) [Mebeverine hydrochloride],> 45.8,> 45.8
C[N+](C)(C)C1CCC(CC2CCC([N+](C)(C)C)CC2)CC1 (stereo not drawn) [Mebezonium Iodide],> 45.8,> 45.8
CCC(C)C(C)(COC(N)=O)COC(N)=O (stereo not drawn) [Mebutamate],> 45.8,> 45.8
CNC1(C)C2CCC(C2)C1(C)C (stereo not drawn) [Mecamylamine],> 45.8,> 45.8
CC(Cc1ccccc1)NCCCCl (stereo not drawn) [Mefenorex],> 45.8,> 45.8

SMILES,IC50 cell viability (ICRF193 0 nM) [µM],IC50 cell viability (ICRF193 200 nM) [µM]
CN(CC1(C)CCCO1)S(=O)(=O)c1ccc(Cl)c(S(N)(=O)=O)c1 (stereo not drawn) [Mefruside],> 45.8,> 45.8
CCCCC/C=C/C/C=C/CCCCCCCC(=O)NC(C)c1ccccc1 (stereo not drawn) [Melinamide],> 45.8,> 45.8
N[C@@H](Cc1ccc(N(CCCl)CCCl)cc1)C(=O)O [Melphalan],> 45.8,> 45.8
CC12CC3CC(C)(C1)CC(N)(C3)C2 [Memantine hydrochloride],> 45.8,> 45.8
CC1=CC(=O)c2ccccc2C1=O [Menadione],> 45.8,> 45.8
C[N+]1(C)CCCC(OC(=O)C(O)(c2ccccc2)c2ccccc2)C1 (stereo not drawn) [Mepenzolate bromide],> 45.8,> 45.8
CNC(C)(C)Cc1ccccc1 [Mephentermine hemisulfate],> 45.8,> 45.8
"COC1(O[C@H]2CC[C@H]3[C@@H]4CC[C@H]5C[C@@H]6S[C@@H]6C[C@]5(C)[C@H]4CC[C@]23C)CCCC1 [Mepitiostane (Contains ~15% 3a,4a-Epithio isomer)]",> 45.8,> 45.8
CCC1(c2cccc(O)c2)CCCCN(C)C1 (stereo not drawn) [Meptazinol hydrochloride],> 45.8,> 45.8
O=C([O-])c1ccccc1-c1c2cc(Br)c(=O)cc-2oc2[c]([Hg+])c([O-])c(Br)cc12.[Na+].[Na+].[OH-] [Merbromin],> 45.8,> 45.8
COC([CH2][Hg+])CNC(=O)c1ccccc1OCC(=O)O.[OH-] (stereo not drawn) [Mersalyl acid],> 45.8,> 45.8
CN1CCCCC1CCN1c2ccccc2Sc2ccc([S+](C)[O-])cc21 (stereo not drawn) [Mesoridazine],> 45.8,> 45.8
C#C[C@]1(O)CC[C@H]2[C@@H]3CCc4cc(OC)ccc4[C@H]3CC[C@@]21C [Mestranol],> 45.8,> 45.8
C[C@H](N)[C@H](O)c1cccc(O)c1 [Metaraminol bitartrate],> 45.8,> 45.8
Cc1cc(C)cc(OCC2CNC(=O)O2)c1 (stereo not drawn) [Metaxalone],> 45.8,> 45.8

# Next, values leading:
IC50 cell viability (ICRF193 0 nM) [µM],IC50 cell viability (ICRF193 200 nM) [µM],SMILES
> 45.8,> 45.8,O=NN(CCCl)C(=O)NC1CCCCC1 [Lomustine]
> 45.8,> 45.8,N[C@@H](C(=O)N[C@@H]1C(=O)N2C(C(=O)O)=C(Cl)CC[C@H]12)c1ccccc1 [Loracarbef]
> 45.8,> 45.8,CN1C(C(=O)Nc2ccccn2)=C(O)c2sc(Cl)cc2S1(=O)=O [Lornoxicam]
> 45.8,> 45.8,CCOC(=O)O[C@]1(C(=O)OCCl)CC[C@H]2[C@@H]3CCC4=CC(=O)C=C[C@]4(C)[C@H]3[C@@H](O)C[C@@]21C [Loteprednol etabonate]
> 45.8,> 45.8,CCCCCN(CCCOC)C(=O)C(CCC(=O)O)NC(=O)c1ccc(Cl)c(Cl)c1 (stereo not drawn) [Loxiglumide]
> 45.8,> 45.8,CC(C(=O)O)c1ccc(CC2CCCC2=O)cc1 (stereo not drawn) [Loxoprofen]
> 45.8,> 45.8,CCCCC(F)(F)[C@@]1(O)CC[C@H]2[C@@H](CC(=O)[C@@H]2CCCCCCC(=O)O)O1 [Lubiprostone]
> 45.8,> 45.8,Cc1ccc(NC(=O)C2(c3ccc4c(c3)OC(F)(F)O4)CC2)nc1-c1cccc(C(=O)O)c1 [Lumacaftor]
> 45.8,> 45.8,Cc1ccc(Nc2c(F)cccc2Cl)c(CC(=O)O)c1 [Lumiracoxib]
> 45.8,> 45.8,CCCCCCO[C@@H](C)c1cccc(-c2csc(NC(=O)c3cc(Cl)c(/C=C(\C)C(=O)O)c(Cl)c3)n2)c1OC [Lusutrombopag]
> 45.8,> 45.8,CN(C)[C@@H]1C(O)=C(C(=O)NCNCCCC[C@H](N)C(=O)O)C(=O)[C@@]2(O)C(O)=C3C(=O)c4c(O)cccc4[C@@](C)(O)[C@H]3C[C@@H]12 [Lymecycline]
> 45.8,> 45.8,Cc1cnc(NC(=O)C2=C(O)c3ccccc3S(=O)(=O)N2C)s1 [MELOXICAM SODIUM]
> 45.8,> 45.8,Cc1cccc(C)c1NC(=O)C1CCCCN1C (stereo not drawn) [MEPIVACAINE HYDROCHLORIDE]
> 45.8,> 45.8,NCc1ccc(S(N)(=O)=O)cc1 [Mafenide hydrochloride]
> 45.8,> 45.8,O=C(O)/C=C\C(=O)O [Maleic acid]
> 45.8,> 45.8,CC(C)OC(=O)C(C(=O)OC(C)C)=C1SC=CS1 [Malotilate]
> 45.8,> 45.8,CN1CCN(c2c(F)cc3c(=O)c(C(=O)O)cn4c3c2OCN4C)CC1 [Marbofloxacin]

IC50 cell viability (ICRF193 0 nM) [µM],IC50 cell viability (ICRF193 200 nM) [µM],SMILES
> 45.8,> 45.8,Cc1cc(C)c(NC(=O)CN(CC(=O)O)CC(=O)O)c(C)c1Br [Mebrofenin]
> 45.8,> 45.8,Cc1ccc(Cl)c(Nc2ccccc2C(=O)O)c1Cl [Meclofenamate sodium]
> 45.8,> 45.8,CN(C)CCOC(=O)COc1ccc(Cl)cc1 [Meclofenoxate hydrochloride]
> 45.8,> 45.8,O=P(O)(O)CP(=O)(O)O [Medronic acid]
> 45.8,> 45.8,CC(=O)O[C@]1(C(C)=O)CC[C@H]2[C@@H]3C[C@H](C)C4=CC(=O)CC[C@]4(C)[C@H]3CC[C@@]21C [Medroxyprogesterone acetate]
> 45.8,> 45.8,CC(=O)[C@H]1CC[C@H]2[C@@H]3C[C@H](C)C4=CC(=O)CC[C@]4(C)[C@H]3[C@@H](O)C[C@]12C [Medrysone]
> 45.8,> 45.8,Cc1cccc(Nc2ccccc2C(=O)O)c1C [Mefenamic acid]
> 45.8,> 45.8,CC(=O)O[C@]1(C(C)=O)CC[C@H]2[C@@H]3C=C(C)C4=CC(=O)CC[C@]4(C)[C@H]3CC[C@@]21C [Megestrol acetate]
> 45.8,> 45.8,CNC[C@H](O)[C@@H](O)[C@H](O)[C@H](O)CO [Meglumine]
> 45.8,> 45.8,COc1ccc2[nH]cc(CCNC(C)=O)c2c1 [Melatonin]
> 45.8,> 45.8,CC(C)=CCC/C(C)=C/CC/C(C)=C/CC/C(C)=C/CC/C(C)=C/CC1=C(C)C(=O)c2ccccc2C1=O [Menaquinone]
> 45.8,> 45.8,Cc1ccccc1OCC(O)CO (stereo not drawn) [Mephenesin]
> 45.8,> 45.8,Cc1ccc2c(n1)Oc1ccc(C(C)C(=O)OCC(=O)N(C)C)cc1C2 (stereo not drawn) [Mepranoprofen arbamel]
> 45.8,> 45.8,C[C@H]1C[C@H]2[C@@H]3CCC4=CC(=O)C=C[C@]4(C)[C@H]3C(=O)C[C@]2(C)[C@@]1(O)C(=O)CO [Meprednisone]
> 45.8,> 45.8,CCCNC(C)(C)COC(=O)c1ccccc1 [Meprylcaine hydrochloride]
> 45.8,> 45.8,C[C@@H](O)[C@H]1C(=O)N2C(C(=O)O)=C(S[C@@H]3CN[C@H](C(=O)N(C)C)C3)[C@H](C)[C@H]12 [Meropenem]
